Measured values: US4771071A, “Antihypercholesterolemic compounds” (Merck & Co., Inc., priority 1986, dated 1988)

What was measured:
HMG-CoA reductase = HMG-CoA reductase inhibition assay (in vitro); format: biochemical; conditions: IC50 compared with compactin determined simultaneously, compactin assigned 100; tested as sodium salt of dihydroxy acid form; solubilized rat liver microsomal enzyme
Experimental: The intrinsic HMG-CoA reductase inhibition activityof the claimed compounds is measured in the in vitro protocol published in J. Med. Chem., 28, p. 347-358 (1985) and described below:
Male Holtzman Sprague-Dawley rats (225-250 g) were kept on reversed lighting and fed Purina rat chow containing 3% cholestyramine for 7 days preceding their sacrifice by CO2 asphyxiation. Livers were removed 6 hours into the dark cycle and used immediately to prepare microsomes. […]
Test compounds or compactin (after first being converted to the sodium salt of their dihydroxy acid form in situ by addition of 1N NaOH (1 equivalent) were added to the assay system in 10-μL volumes at multiconcentration levels. After a 40-minutes incubation at 37° C. with shaking and exposure to air, the reaction was stopped by the addition of 0.4 mL of 8N HCl. After an additional 30-minute incubation at 37° C. to ensure the complete lactonization of mevalonic acid to mevalonolactone, 0.2 ml of the mixture was added to an 0.5×5.0 cm column containing 100-200 mesh BioRex 5, chloride form (Bio-Rad), wetted with distilled water, as described by Alberts et al., [J. Proc. Natl. Acad. Sci. U.S.A., 1980, 77, 3957]. […] Five milliliters of Aquasol-2 (New England Nuclear) was added to each vial, and radioactivity was measured in a Packard Tri Carb Prias scintillation counter. […]

[1] = Stability of free hydroxy acid on standing; format: physicochemical
Experimental: The sodium salt of the compound II from Example 11 is redissolved in 2 ml of ethanol-water (1:1) and added to 10 ml of 1N hydrochloric acid from which the hydroxy acid is extracted with ethyl acetate. The latter solvent is washed once with water, dried, and removed in vacuo with a bath temperature not exceeding 30° C.

Compound	Relative Potency (HMG-CoA reductase)	stability of hydroxy acid (reversion to lactone) [1]
6(R)-[2-[8(S)-(2,2-Dimethyl-3-methoxycarbonylpropionyloxy)-2(S),6(R)-dimethyl-1,2,6,7,8,8a-(R)-hexahydronaphthyl-1(S)]ethyl]-4(R)-hydroxy-3,4,5,6-tetrahydro-2H-pyran-2-one [Example 2]	59	–
6(R)-[2-[8(S)-(2,2-dimethyl-3-methoxy-3-oxopropionyloxy)-2(S),6(R)-dimethyl-1,2,6,7,8,8a(R)-hexahydronaphthyl-1(S)]ethyl]-4(R)-hydroxy-3,4,5,6-tetrahydro-2H-pyran-2-one [Example 1]	87	–
COC(=O)C(C)(C)C(=O)O[C@H]1C[C@@H](C)C=C2C=C[C@H](C)[C@H](CC[C@@H](O)C[C@@H](O)CC(=O)O)[C@H]21 [Example 13]	–	slowly reverts to the lactone on standing
